Paper PMC6412891, “Synthesis and Biological Evaluation of Novel Thiazolyl-Coumarin Derivatives as Potent Histone Deacetylase Inhibitors with Antifibrotic Activity” (Molecules, 2019)
Read-outs that look alike come from different tables or passages of the source.

Tests used:
[1] = test system: CFs; set-up: method as in PMID 24631770, PMID 24374140; conditions: cited from earlier work
[2] = test system: HDACs; conditions: read-out: IC50 HDAC inhibition, cited from earlier work
[3] = test system: HDACs HeLa cells nuclear extract; test: HDAC inhibitory activity, fluorometric kit, HeLa cell nuclear extract; type: biochemical, human; conditions: HeLa cell nuclear extract as HDAC source
[4] = biological target: T1, HDAC1 human recombinant (Homo sapiens, UniProt Q13547); test: HDAC1 inhibitory activity, fluorometric kit; type: biochemical; conditions: Class I
T1 construct: purchased Enzo Life Science BML-AK511

[5] = biological target: T2, HDAC6 human recombinant (Homo sapiens, UniProt Q9UBN7); test: HDAC6 inhibitory activity, fluorometric kit; type: biochemical; conditions: Class II
T2 construct: purchased Enzo Life Science BML-AK516
T2 sequence (Q9UBN7 1-1215): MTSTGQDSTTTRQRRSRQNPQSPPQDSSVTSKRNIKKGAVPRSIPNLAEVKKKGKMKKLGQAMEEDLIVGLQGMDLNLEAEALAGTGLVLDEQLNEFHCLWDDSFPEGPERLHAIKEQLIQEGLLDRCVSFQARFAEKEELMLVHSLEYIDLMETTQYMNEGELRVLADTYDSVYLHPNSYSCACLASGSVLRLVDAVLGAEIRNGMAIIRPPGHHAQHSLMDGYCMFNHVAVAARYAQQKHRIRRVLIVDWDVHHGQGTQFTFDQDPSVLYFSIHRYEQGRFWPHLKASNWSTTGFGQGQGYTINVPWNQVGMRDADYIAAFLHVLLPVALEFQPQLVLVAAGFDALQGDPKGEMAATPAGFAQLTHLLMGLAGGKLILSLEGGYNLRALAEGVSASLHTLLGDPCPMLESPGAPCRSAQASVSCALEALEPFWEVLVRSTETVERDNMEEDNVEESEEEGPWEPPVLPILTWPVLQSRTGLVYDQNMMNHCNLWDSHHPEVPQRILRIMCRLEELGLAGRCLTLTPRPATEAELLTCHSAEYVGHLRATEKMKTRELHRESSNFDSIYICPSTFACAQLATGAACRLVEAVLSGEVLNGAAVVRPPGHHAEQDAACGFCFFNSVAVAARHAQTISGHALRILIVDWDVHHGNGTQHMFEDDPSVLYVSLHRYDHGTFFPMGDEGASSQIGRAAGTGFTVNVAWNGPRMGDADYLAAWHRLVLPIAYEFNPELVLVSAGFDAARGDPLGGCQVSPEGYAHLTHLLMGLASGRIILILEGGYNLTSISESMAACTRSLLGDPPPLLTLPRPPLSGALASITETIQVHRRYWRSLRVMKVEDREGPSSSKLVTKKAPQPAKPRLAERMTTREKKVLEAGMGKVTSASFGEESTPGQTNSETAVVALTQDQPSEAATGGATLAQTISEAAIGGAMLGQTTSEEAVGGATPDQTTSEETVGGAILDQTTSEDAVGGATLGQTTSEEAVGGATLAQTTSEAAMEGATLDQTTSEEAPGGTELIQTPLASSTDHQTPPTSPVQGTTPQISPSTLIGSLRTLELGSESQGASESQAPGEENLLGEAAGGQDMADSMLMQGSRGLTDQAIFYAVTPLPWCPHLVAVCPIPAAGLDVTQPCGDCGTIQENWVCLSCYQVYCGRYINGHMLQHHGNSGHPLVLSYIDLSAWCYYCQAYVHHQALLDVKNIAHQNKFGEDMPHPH

[6] = Cytotoxicity assay (Alamar Blue) in cardiac fibroblasts; type: cell-based, rat; conditions: Sprague-Dawley, rat, primary neonatal rat cardiac fibroblasts (CFs), CFs treated for 48 h
Description: (§1) CFs were treated for 48 h with all the new CTz derivatives in a broad concentration range (100 μM^−1 mM), and their cytotoxicity was then evaluated. In Table 3 cytotoxic concentration 50 (CC50) values for each of the synthesized compounds are shown. […] When comparing the different ZBG the series 5 is the least cytotoxic for CFs, while series 8 was the most cytotoxic.
(§2) Sprague Dawley rats were obtained from the Animal Breeding Facility of the School of Chemical and Pharmaceutical Sciences at the University of Chile. All studies followed the Guide for the Care and Use of Laboratory Animals published by the US National Institutes of Health (NIH Publication 8th, 2011), and experimental protocols were approved by the University of Chile Institutional Ethics Review Committee. CF were isolated from of 2 or 3–day–old Sprague-Dawley rats and cultured as described previously. Briefly, the neonatal rats were decapitated and their hearts were extracted under aseptic environment. Atria were removed and ventricles were cut into small pieces (~1–2 mm) for posterior colagenase II digestion. The digestion yield was separated by 10 min centrifugation at 89×g. The pellet was resuspended in 10 mL of Dulbecco’s Modified Eagle’s Medium/Nutrient F-12 (DMEM-F12) supplemented with 10% FBS and antibiotics (100 μg/mL streptomycin and 100 units/mL penicillin) and cultured in a humid atmosphere of 5% CO2 and 95% O2 at 37°C until confluence (5 days). The purity of the CFs population was assessed through the expression of several markers. CFs had positive staining against vimentin (Santa Cruz Biotechnology), while being negative against sarcomeric actin and desmin (Sigma-Aldrich). Experiments were performed on cells at passage 1. Cells were cultured in 35-mm well plates and serum starved for 24 h prior to stimulation.
(§3) To evaluate cytotoxicity, CFs were seeded in 12 microwell plates at a ratio of 2 × 10^4 cell/cm^2, cultured in DMEM–F12 medium + 10% FBS, which was subsequently replaced by DMEM–F12. After 24 h of serum starvation derivatives were applied at proper times and concentrations in accordance to experimental procedures. Cell viability assays were carried out using Alamar Blue®, a nontoxic, cell permeable non fluorescent compound that is blue in color. Viable cells reduce resazurin to resorufin, which produces very bright red fluorescence which is used as a quantitative cell viability measure. 10 μL of 0.2 mg/mL Alamar Blue® was added into each well followed by incubation for 24 h. The fluorescence of Alamar Blue® was read using microplate reader at 570 excitation and emission to 595 nm. Cell survival was expressed as percentage over the untreated cells. To evaluate CFs proliferation assay, cells were seeded as mentioned before, and after serum starvation, they were stimulated by 10% fetal bovine serum (FBS), in presence/absence of CTz derivatives for 24 h, at concentrations according to experiment. Cell proliferation was quantified by Alamar Blue®, according to protocol mentioned before. Cell proliferation was expressed as percentage over the control FBS treated cells.

[7] = test system: neonatal rat cardiac fibroblasts (CFs); test: FBS-induced cardiac fibroblast proliferation assay (Alamar Blue); type: cell-based; conditions: 10% FBS-induced CF proliferation, 48 h, read-out: Inhibition percentage of cell proliferation
Description: CFs were treated for 48 h with 10% fetal bovine serum (FBS), to induce CFs proliferation in presence/absence of each new CTz derivatives in a concentration range of 1–10 μM. In Table 4, the inhibition percentage of cell proliferation for each concentration of the synthesized compounds are shown. All derivatives inhibited CFs proliferation induce by serum.
as §2, with “Cells were cultured in 35-mm well plates and serum starved for 24 h prior to stimulation.” left out
as §3, with “10 μL of 0.2 mg/mL Alamar Blue® was added into each well followed by incubation for 24 h.” left out, “To evaluate CFs proliferation assay, cells were seeded as mentioned before, and after serum starvation, they were stimulated by 10% fetal bovine serum (FBS), in presence/absence of CTz derivatives for 24 h, at concentrations according to experiment.” left out

[8] = test system: neonatal rat cardiac fibroblasts (CFs); test: Cytotoxicity assay (Alamar Blue) in cardiac fibroblasts; type: cell-based; conditions: CFs treated for 48 h
Description: as §1, §2, §3

T1 sequence (Q13547 whole entry): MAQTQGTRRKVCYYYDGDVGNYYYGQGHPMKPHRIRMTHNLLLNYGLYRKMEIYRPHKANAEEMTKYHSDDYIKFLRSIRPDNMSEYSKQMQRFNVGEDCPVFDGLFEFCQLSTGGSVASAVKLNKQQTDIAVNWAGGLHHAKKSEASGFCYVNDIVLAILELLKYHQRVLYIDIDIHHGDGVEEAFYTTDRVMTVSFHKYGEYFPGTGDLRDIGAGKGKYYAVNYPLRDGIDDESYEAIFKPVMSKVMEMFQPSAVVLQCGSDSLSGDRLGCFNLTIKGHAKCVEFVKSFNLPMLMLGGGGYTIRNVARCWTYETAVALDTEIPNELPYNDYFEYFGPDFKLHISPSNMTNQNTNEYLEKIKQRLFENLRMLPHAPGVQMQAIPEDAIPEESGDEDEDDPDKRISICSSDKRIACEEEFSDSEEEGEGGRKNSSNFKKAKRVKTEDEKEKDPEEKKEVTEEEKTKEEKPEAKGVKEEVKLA

Nc1ccccc1NC(=O)c1ccc(CNc2nccc(-c3cccnc3)n2)cc1 [mocetinostat]
concentration shown to inhibit the proliferation of CFs [1]: 1 µM

CCCC(CCC)C(=O)O [valproic acid]
IC50 ([2]; short chain fatty acids): 140 µM

O=C(O)CCCc1ccccc1 [phenylbutyric acid]
IC50 ([2]; short chain fatty acids): 620 µM

O=C(O)/C=C/c1ccc(O)c(O)c1 [caffeic acid]
IC50 ([2]; catecholic derivatives): 2540 µM

O=C(/C=C/c1ccc(O)c(O)c1)O[C@@H]1C[C@](O)(C(=O)O)C[C@@H](O)[C@H]1O [chlorogenic acid]
IC50 ([2]; catecholic derivatives): 375 µM

O=C(CCCCC1CCSS1)Nc1nc(-c2cc3cc(Br)ccc3oc2=O)cs1 (stereo not drawn) [Compound 5b, 5-[1,2]-Dithiolan-3-yl-N-[4-(6-bromo-2-oxo-2H-chromen-3-yl)-thiazol-2-yl]-pentanamide]
IC50 [3]: 0.0621 ± 0.0025 µM
IC50 [4]: 0.0476 ± 0.0023 µM
IC50 [5]: 0.123 ± 0.0051 µM
CC50 at 48 h [6]: 127 ± 19.2 µM
inhibition at 1 µM [7]: 71.5 ± 3.8%
inhibition at 5 µM [7]: 89.1 ± 9.5%
inhibition at 10 µM [7]: 96.4 ± 4.7%
melting point: 150 to 153 °C

CCC(=O)CCCCC[C@@H]1NC(=O)[C@H]2CCCCN2C(=O)[C@H]([C@@H](C)CC)NC(=O)[C@H](Cc2cn(OC)c3ccccc23)NC1=O [apicidin]
concentration shown to inhibit the proliferation of CFs [1]: 3 µM

O=C(CCCCC(=O)Nc1nc(-c2cc3cc(Br)ccc3oc2=O)cs1)NO [Compound 8b, 5-[4-(6-Bromo-2-oxo-2H-chromen-3-yl)-thiazol-2-yl-carbamoyl]-N-hydroxypentanamide]
IC50 [3]: 0.0571 ± 0.0045 µM
IC50 [4]: 0.0454 ± 0.0026 µM
IC50 [5]: 0.0802 ± 0.0037 µM
CC50 at 48 h [6]: 72.4 µM
CC50 [8]: 72.5 ± 11.6 µM
inhibition at 1 µM [7]: 72.7 ± 3.9%
inhibition at 5 µM [7]: 94.4 ± 7%
inhibition at 10 µM [7]: 104 ± 2.8%

COc1ccc2oc(=O)c(-c3csc(NC(=O)CCCCC4CCSS4)n3)cc2c1 (stereo not drawn) [Compound 5c, 5-[1,2]-Dithiolan-3-yl-N-[4-(6-methoxy-2-oxo-2H-chromen-3-yl)-thiazol-2-yl]-pentanamide]
IC50 [3]: 0.05 ± 0.0017 µM
IC50 [4]: 0.0397 ± 0.0013 µM
IC50 [5]: 0.0841 ± 0.0029 µM
CC50 at 48 h [6]: 171 ± 6.1 µM
inhibition at 1 µM [7]: 67 ± 8.3%
inhibition at 5 µM [7]: 83.2 ± 6.8%
inhibition at 10 µM [7]: 91.2 ± 3.2%
melting point: 83 to 84 °C
